Measurements published in paper PMC3420011, “Small-Molecule Inhibition of BRDT for Male Contraception” (Cell, 2012).

Target: T1, BRDT (Mus musculus, UniProt Q91Y44)
T1 construct: mBRDT(1) 23–133, first (N-terminal) bromodomain
Test: AlphaScreen competition with H4Kac4 peptide (IC50); ITC
Assay type: binding

**Q.** Cc1sc2c(c1C)C(c1ccc(Cl)cc1)=N[C@@H](CC(=O)OC(C)(C)C)c1nnc(C)n1-2 [(+)-JQ1] was tested. Which IC50 did it give?
**A.** The IC50 was 10 nM.
